Calls of active or inactive are those of the source.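 The calls were made as follows: active = a tumour-causing dose and a tumour site recorded for mice in at least one sex group; inconclusive = only government mouse studies exist and were judged inadequate; inactive = mouse studies exist but none gave tumours.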

This data set relates to mouse carcinogenicity bioassay, TD50 from CPDB. Briefly: DSSTox (CPDBAS) Carcinogenic Potency Database Summary Mouse Bioassay Results. The method, boiled down: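 Values are TD50 carcinogenic potencies from mouse chronic bioassays, taking the most positive result for each sex-species. Sources are published literature and NCI/NTP studies; target sites reflect author-reported positive findings.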

Setting [1] is: TD50_Mouse_Note: no positive results, TargetSites_Mouse_Female: no positive results.
The mark [2] stands for this setting: TargetSites_Mouse_Female: liver.
Where [3] appears, read: TD50_Mouse_Note: TD50 is harmonic mean of more than one positive test, TargetSites_Mouse_Female: stomach.
Where [4] appears, read: TD50_Mouse_Note: TD50 is harmonic mean of more than one positive test, TargetSites_Mouse_Female: liver.
The mark [5] stands for this setting: TD50_Mouse_Note: positive test results only by intraperitoneal or intravenous injection, TargetSites_Mouse_Female: peritoneal cavity.
Where [6] appears, read: TargetSites_Mouse_Female: no positive results.
The mark [7] stands for this setting: TD50_Mouse_Note: no positive results.

Take `CC(=O)OC1CC(C)OC(C)O1` (stereo not given): the outcome under setting [1] is “inactive; no positive results”.

`Nc1cc(Cl)cc(C(=O)O)c1Cl`: the Potency under setting [2] was 25.4 mmol/kg/day.

As to `CC(C)=CCl`, under setting [3], the Potency is 0.165 mmol/kg/day.

Take `[Na+]`: under setting [1], the outcome was “inactive; no positive results”.

For `O=C1c2ccccc2C(=O)c2ccccc21`, the outcome under setting [1] is “inactive; no positive results”.

Take `C=C1C/C(=C/C)C(=O)O[C@@H]2CCN3CC=C(COC(=O)[C@@]1(O)CO)[C@H]23`: the Potency (TD50_Mouse_Note: TD50 is harmonic mean of more than one positive test, TargetSites_Mouse_Female: lung) is 0.00564 mmol/kg/day.

`CCCCC(CC)CO` (stereo not given): under setting [2], the Potency is 12.9 mmol/kg/day.

Turning to `COP(=O)(OC)O/C(=C\Cl)c1cc(Cl)c(Cl)cc1Cl`, the Potency (TargetSites_Mouse_Female: no positive results - CPDB evaluation based on NCI Technical Report) was 0.623 mmol/kg/day.

Consider `Cc1cc(O)c2c(c1O)C(=O)C13C(=C2O)C(=O)C2C(O)C1C1C(O)C3C(=O)C3=C(O)c4c(O)cc(C)c(O)c4C(=O)C321` (stereo not given), for which the Potency under setting [4] is 0.0324 mmol/kg/day.

Regarding `O=C(O)/C=C/c1ccc(O)c(O)c1`, under “TD50_Mouse_Note: TD50 is harmonic mean of more than one positive test, TargetSites_Mouse_Female: kidney, stomach”, the Potency is 27.2 mmol/kg/day.

Turning to `Nc1ccc(-c2ccc(N)cc2)cc1`, the Potency is 0.108 mmol/kg/day. In addition, the Potency (TD50_Mouse_Note: TD50 is harmonic mean of more than one positive test, TargetSites_Mouse_Female: harderian gland, liver, vascular system) is 0.0766 mmol/kg/day.

For the compound `Clc1ccc2c(c1)C(c1ccccc1)=NCc1nncn1-2`, the outcome under setting [1] was “inactive; no positive results”.

With `COc1cc(/C=C/C(=O)CC(=O)/C=C/c2ccc(O)c(OC)c2)ccc1O`, under setting [1], the outcome was “inactive; no positive results”.

For the compound `Nc1nc(N)c2nc(-c3ccccc3)c(N)nc2n1`, the Potency under setting [4] is 0.238 mmol/kg/day.

Turning to `NC(=O)CCCCC(N)=O`, under setting [1], the outcome is “inactive; no positive results”.

As for `ClC/C=C/CCl`, the Potency under setting [5] is 0.0122 mmol/kg/day.

Take `OC[P+](CO)(CO)CO`: the outcome under setting [1] is “inactive; no positive results”.

In the case of `CNC(=O)O/N=C/C(C)(C)SC`, the outcome under setting [1] was “inactive; no positive results”.

`CN(N=O)C(N)=O`: the Potency was 0.0119 mmol/kg/day.

Take `CC1=NN(c2ccccc2)C(=O)C1`: under setting [1], the outcome is “inactive; no positive results”.

Turning to `COc1ccc(N)c(C)c1`, under setting [1], the outcome was “inactive; ntp bioassay inadequate”.

With `CCN(CC)C(=S)SSC(=S)N(CC)CC`, under setting [1], the outcome was “inactive; no positive results”.

As to `CC(=O)Nc1ccc(S(=O)(=O)O)c2cc(S(=O)(=O)O)c(N=Nc3ccc(N=Nc4ccc(S(=O)(=O)O)cc4)c4ccc(S(=O)(=O)O)cc34)c(O)c12`, the outcome under setting [1] is “inactive; no positive results”.

Turning to `CC1=C(/C=C/C(C)=C/C=C/C(C)=C/C=C/C=C(C)/C=C/C=C(C)/C=C/C2=C(C)CCCC2(C)C)C(C)(C)CCC1`, the outcome under setting [1] was “inactive; no positive results”.

Consider `CN(C)[C@@H]1C(=O)C(C(N)=O)=C(O)[C@@]2(O)C(=O)C3=C(O)c4c(O)cccc4[C@@](C)(O)[C@H]3C[C@@H]12`, for which, under setting [1], the outcome is “inactive; no positive results”.

As for `Nc1ccc(Cl)cc1`, the outcome under setting [1] is “inactive; no positive results”. For the same compound, the Potency under setting [6] is 0.546 mmol/kg/day.

For the compound `CC1=C[C@H]2O[C@@H]3[C@H](O)[C@@H](O)[C@@](C)(C34CO4)[C@@]2(CO)[C@H](O)C1=O` (stereo not given in full), the outcome under setting [1] was inactive.

`FC(F)OC(F)(F)C(F)Cl` (stereo not given): the outcome under setting [1] was “inactive; no positive results”.

For `CC(C)OC(=O)COc1ccc(Cl)cc1Cl`, the outcome under setting [1] was “inactive; no positive results”.

On to `Oc1ccc2ccccc2c1N=Nc1ccccc1`, for which the outcome under setting [1] was “inactive; no positive results”.

Take `Nc1ccc(Sc2ccc(N)cc2)cc1`: where the note is “TD50_Mouse_Note: TD50 is harmonic mean of more than one positive test, TargetSites_Mouse_Female: liver, thyroid gland”, the Potency is 0.153 mmol/kg/day.

Consider `Clc1c(Cl)c(Cl)c(Cl)c(Cl)c1Cl`, for which the Potency under setting [4] is 0.229 mmol/kg/day.

Consider `O=C(O)C1[O][Sb]2[O]C(=O)C([O]2)C(C(=O)O)[O][Sb]2[O]C(=O)C1[O]2` (stereo not given), for which the outcome (TargetSites_Mouse_BothSexes: no positive results) was inactive.

Take `N#Cc1c(Cl)c(Cl)c(Cl)c(C#N)c1Cl`: the outcome under setting [1] was “inactive; no positive results”.

Regarding `CCN(CC)C(=S)S[Te](SC(=S)N(CC)CC)(SC(=S)N(CC)CC)SC(=S)N(CC)CC`, the outcome under setting [1] is “inactive; no positive results”.

As for `O=C(O)c1ccccc1`, under setting [1], the outcome is “inactive; no positive results”.

As for `CN(C)CCC(c1ccc(Cl)cc1)c1ccccn1` (stereo not given), the outcome under setting [1] is “inactive; no positive results”.

As for `CC(=O)OC[C@H]1O[C@H](O[C@]2(COC(C)=O)O[C@H](COC(=O)C(C)C)[C@@H](OC(=O)C(C)C)[C@@H]2OC(=O)C(C)C)[C@H](OC(=O)C(C)C)[C@@H](OC(=O)C(C)C)[C@@H]1OC(=O)C(C)C`, under setting [1], the outcome is “inactive; no positive results”.

In the case of `CCCCCc1cc(O)c2c(c1)OC(C)(C)[C@@H]1CCC(C)=C[C@@H]21`, the outcome under setting [1] was “inactive; no positive results”.

Regarding `CC(N)Cc1ccccc1` (stereo not given), under setting [1], the outcome is “inactive; no positive results”.

On to `Nc1nc(-c2ccc([N+](=O)[O-])cc2)cs1`, for which the Potency (TargetSites_Mouse_Female: hematopoietic system) is 0.045 mmol/kg/day.

With `COC(=O)C(C)(C)Oc1ccc(-c2ccc(Cl)cc2)cc1`, the Potency (TD50_Mouse_Note: TD50 is harmonic mean of more than one positive test, greater than ten-fold variation among TD50 values for positive res, TargetSites_Mouse_Female: liver) is 0.00824 mmol/kg/day.

As for `CC(=O)c1ccc(S(=O)(=O)NC(=O)NC2CCCCC2)cc1`, the outcome under setting [1] was “inactive; no positive results”.

As for `Cc1ncc([N+](=O)[O-])n1CCO`, under “TD50_Mouse_Note: TD50 is harmonic mean of more than one positive test, TargetSites_Mouse_Female: hematopoietic system, lung”, the Potency was 2.96 mmol/kg/day.

As to `O=CNc1nc(-c2ccc([N+](=O)[O-])o2)cs1`, the Potency (TD50_Mouse_Note: TD50 is harmonic mean of more than one positive test, greater than ten-fold variation among TD50 values for positive res, TargetSites_Mouse_Female: hematopoietic system, lung, stomach, urinary bladder) was 0.0824 mmol/kg/day.

`NC(N)=S`: under setting [1], the outcome was inactive.

For the compound `CC12CCC(CC1)C(C)(C)O2`, the outcome under setting [7] was “inactive; no positive results”.

Consider `CCC1NC(=O)C2C(Cl)C(Cl)CN2C(=O)C(CO)NC(=O)CC(c2ccccc2)NC(=O)C(CO)NC1=O` (stereo not given), for which the Potency was 0.0412 mmol/kg/day.

As for `Cn1c(=O)c2[nH]cnc2n(C)c1=O`, under setting [1], the outcome was “inactive; no positive results”.

`CCCCCCc1ccc(O)cc1O`: the outcome under setting [1] is “inactive; no positive results”.

Regarding `CC(=O)Oc1ccccc1C(=O)O`, the outcome under setting [1] was “inactive; no positive results”.

As to `ClCOCCOCCl`, under setting [5], the Potency was 0.0291 mmol/kg/day.

For the compound `S=C([S-])NCCNC(=S)[S-].[Zn+2]`, under setting [1], the outcome was “inactive; no positive results”.

Turning to `CN=C(NC#N)NCCSCc1nc[nH]c1C`, the outcome under setting [1] was inactive.

As for `ClCc1cccnc1`, under setting [3], the Potency is 1.4 mmol/kg/day.

Regarding `OCCO`, the outcome under setting [1] was “inactive; no positive results”.

With `Cn1cc(C(=O)O)c(=O)c2ccc(/C=C/c3ccc([N+](=O)[O-])o3)nc21`, under “TargetSites_Mouse_BothSexes: hematopoietic system, lung, stomach”, the Potency is 0.0212 mmol/kg/day.

On to `COC(C(=O)O)c1ccccc1` (stereo not given), for which, under setting [1], the outcome was “inactive; no positive results”.

As to `Nc1ccc(-c2ccc(N)c(O)c2)cc1O`, the Potency (TD50_Mouse_Note: no positive results are statistically significant) was 1.22 mmol/kg/day.

As to `Cc1c(N)nc(C)c2c1[nH]c1ccccc12`, the Potency under setting [4] is 0.15 mmol/kg/day.

On to `CCOC(=O)CC(SP(=S)(OC)OC)C(=O)OCC` (stereo not given), for which the outcome under setting [1] is “inactive; no positive results”.

As to `CC(C)C/C=N/N(C)C=O`, the Potency (TD50_Mouse_Note: TD50 is harmonic mean of more than one positive test, TargetSites_Mouse_Female: gall bladder, liver, lung) was 0.0157 mmol/kg/day.

As to `CC(C)(Oc1ccc(C2CC2(Cl)Cl)cc1)C(=O)O` (stereo not given), the Potency (TD50_Mouse_Note: TD50 is harmonic mean of more than one positive test) was 0.0214 mmol/kg/day.

For the compound `S=C=Nc1ccccc1`, the outcome under setting [1] was “inactive; no positive results”.

For the compound `Cc1ccc2c(-c3cccc(O)c3)nc(=O)n(C(C)C)c2c1`, the outcome under setting [1] was “inactive; no positive results”.

Turning to `CC(C)OC(=O)Nc1cccc(Cl)c1`, the outcome under setting [1] is “inactive; no positive results”.

In the case of `CN(C)C(=S)[S-].CN(C)C(=S)[S-].[Cu+2]`, the outcome under setting [1] is “inactive; no positive results”.

As for `O=S(=O)(O)NC1CCCCC1`, the Potency (TD50_Mouse_Note: TD50 is harmonic mean of more than one positive test, TargetSites_Mouse_Female: all tumor bearing animals) is 3.31 mmol/kg/day.

In the case of `ClC1=C(Cl)C2(Cl)C3C(Cl)C=CC3C1(Cl)C2(Cl)Cl` (stereo not given), the Potency under setting [4] was 0.00324 mmol/kg/day.

As to `CCC1(c2ccccc2)C(=O)NCNC1=O`, the Potency under setting [4] is 0.12 mmol/kg/day.

As to `O=C(O)[C@@H]1[C@H](C(=O)O)[C@@]2(Cl)C(Cl)=C(Cl)[C@]1(Cl)C2(Cl)Cl`, under setting [6], the Potency is 0.363 mmol/kg/day.

In the case of `CN(C)c1ccccc1`, the outcome under setting [1] is “inactive; no positive results”.

As to `c1ccc2n[nH]nc2c1`, the outcome under setting [1] was “inactive; no positive results”.

For the compound `COP(=S)(OC)Oc1ccc([N+](=O)[O-])cc1`, the outcome under setting [1] was “inactive; no positive results”.

With `COc1cc2c(c3c1c(=O)c1ccccc1n3C)C=CC(C)(C)O2`, the outcome (TD50_Mouse_Note: only experiment is NCI/NTP bioassay inadequate, TargetSites_Mouse_Female: NTP bioassay inadequate) is given as “ntp bioassay inadequate”.

Regarding `O=C1CCCCC1`, under setting [1], the outcome is “inactive; no positive results”.

For the compound `O.O.O.O.O.O.O.O.O=S(=O)([O-])[O-].O=S(=O)([O-])[O-].O=S(=O)([O-])[O-].[Cd+2].[Cd+2].[Cd+2]`, the outcome under setting [7] was “inactive; no positive results”.

On to `CC(N)=S`, for which the Potency (TD50_Mouse_Note: TD50 is harmonic mean of more than one positive test, harmonic mean of TD50 includes a value for upper 99% confidence li, TargetSites_Mouse_Female: liver) is 0.117 mmol/kg/day.

As to `COc1ccc(CCN2CCC(Nc3nc4ccccc4n3Cc3ccc(F)cc3)CC2)cc1`, the outcome under setting [1] was “inactive; no positive results”.

`O=C1NCCN1`: the outcome under setting [1] is “inactive; no positive results”.

Regarding `CCCCCCCCS(=O)C(C)Cc1ccc2c(c1)OCO2` (stereo not given), under setting [6], the Potency was 0.192 mmol/kg/day.

Take `Oc1ccccc1`: under setting [1], the outcome was “inactive; no positive results”.

`NC(=S)NNC(N)=S`: the outcome under setting [1] was “inactive; no positive results”.

Source of the values: PubChem BioAssay AID1199 (EPA DSSTox, 2008).
